Holding throughout (assay): MIC by broth microdilution (CLSI)
Common to all, as to assay type: cell-based
On the technique in general: In broth dilution the organism is exposed to a series of concentrations in liquid medium.

In assay [1] the test system is K. oxytoca HAV#450; Clinical. To be noted: Klebsiella oxytoca, read-out: MIC K. oxytoca HAV#450. In a few lines:
(§1)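 MIC read as the lowest compound level with no visible growth at 24 h (μg/mL). CLSI microdilution; CaMHB (Chelex 100-treated for P. aeruginosa); 5×10^5 CFU/mL; range 64-0.06 μg/mL; DMSO 2.5% final.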

In assay [2] the test system is K. pneumoniae HAV#402, FQ-R. The following applies: Klebsiella pneumoniae, read-out: MIC K. pneumoniae HAV#402, FQ-R. In a few lines: as §1
In assay [3] the test system is E. coli ATCC 25922 (HAV#006). The following applies: Escherichia coli, ATCC25922, 24 h, read-out: MIC E. coli ATCC 25922. In a few lines: as §1
A further assay deals with S. aureus HAV#216, cfr. To be noted: Staphylococcus aureus, read-out: MIC S. aureus HAV#216, cfr. The essentials:
as §1

Assay [4] relates to S. aureus HAV#031, c-ermA. To be noted: Staphylococcus aureus, read-out: MIC S. aureus HAV#031, c-ermA. The essentials:
as §1

The test system of assay [5] is A. baumannii ATCC 19606 (HAV#010). The following applies: Acinetobacter baumannii, ATCC19606, 24 h, read-out: MIC A. baumannii ATCC 19606. The essentials: as §1
Assay [6] deals with E. faecium HAV#318, VRE; clinical. The following applies: Enterococcus faecium, read-out: MIC E. faecium HAV#318, VRE. The essentials:
as §1

The test system of a further assay is E. coli HAV#038, ΔTolC. The following applies: Escherichia coli, 24 h, read-out: MIC E. coli HAV#038, ΔTolC. The essentials: as §1
In assay [7] the test system is S. aureus ATCC 29213 (HAV#001). The following applies: Staphylococcus aureus, ATCC29213, 24 h, read-out: MIC S. aureus ATCC 29213. In a few lines: as §1
Assay [8] concerns E. faecalis ATCC 29212 (HAV#005). To be noted: Enterococcus faecalis, ATCC29212, 24 h, read-out: MIC E. faecalis ATCC 29212. In a few lines:
as §1

The test system of assay [9] is S. pyogenes HAV#033, c-ermB. The following applies: Streptococcus pyogenes, read-out: MIC S. pyogenes HAV#033, c-ermB. In a few lines: as §1
In a further assay the test system is E. coli HAV#040, LptD. To be noted: Escherichia coli, 24 h, read-out: MIC E. coli HAV#040, LptD. In a few lines: as §1
The test system of another assay is E. coli ΔtolC. The following applies: Escherichia coli, 24 h, read-out: MIC E. coli ΔtolC, ΔtolC; CaMHB, 24 h incubation. The essentials: as §1
A further assay relates to S. aureus Clinical (cfr). To be noted: Staphylococcus aureus, 24 h, read-out: MIC S. aureus Clinical (cfr). In a few lines: as §1
The test system of another assay is K. pneumoniae JMI-991193. To be noted: Klebsiella pneumoniae, JMI991193, 24 h, read-out: MIC K. pneumoniae JMI-991193. In a few lines:
as §1

The test system of another assay is S. aureus MMX 3035. The following applies: Staphylococcus aureus, MMX3035, 24 h, read-out: MIC S. aureus MMX 3035. In a few lines:
as §1

For the next assay, the system named is E. coli lptD mutant. The following applies: Escherichia coli, 24 h, read-out: MIC E. coli lptD mutant, lptD mutant / ΔlptD mutant; CaMHB, 24 h incubation. The essentials: as §1
Another assay relates to E. faecium JMI-990536. The following applies: Enterococcus faecium, JMI990536, 24 h, read-out: MIC E. faecium JMI-990536. In a few lines: as §1
The next assay deals with S. pneumoniae c-ermB. The following applies: Streptococcus pneumoniae, 24 h, read-out: MIC S. pneumoniae c-ermB. The essentials:
as §1

Setting [10] is: HAV#006, ATCC 25922, CaMHB, 24 h incubation.
Where [11] appears, read: HAV#010, ATCC 19606, CaMHB, 24 h incubation.
Where [12] appears, read: HAV#001, ATCC 29213, CaMHB, 24 h incubation.
Setting [13] is: HAV#005, ATCC 29212, CaMHB, 24 h incubation.

Where a name gives a salt, the structure may show the parent alone. Read-outs that look alike come from different tables or passages of the source.

Regarding `CC(C)C[C@@H]1CCO[C@@H]2[C@H](CN[C@@H]2C(=O)N[C@H]2C3OC(SCC/C=C\[C@H]2C)C(O)C(O)C3O)C1` (single isomer, unassigned) [FSA1507066, formate], the MIC turned out to be 4 mg/L in [1] (24 h); 16 mg/L in assay [2] (24 h); 4 mg/L in assay [3]; 0.5 mg/L in the assay with S. aureus HAV#216, cfr (24 h); 0.5 mg/L in assay [4] (24 h); 2 mg/L in assay [5]. In addition, the MIC in assay [6] (24 h) was 0.25 mg/L; with E. coli HAV#038, ΔTolC it was 0.125 mg/L; in [7] it was at most 0.06 mg/L; in [8] it was at most 0.06 mg/L; in assay [9] (24 h), 0.125 mg/L; with E. coli HAV#040, LptD, 0.25 mg/L.

Regarding `CC(C)C[C@@H]1CCO[C@@H]2[C@H](CN[C@@H]2C(=O)N[C@H]2C3OC(SCC/C=C/[C@@H]2C)C(O)C(O)C3O)C1` (single isomer, unassigned) [FSA1507068, formate salt], the MIC in [1] (CaMHB, 24 h incubation) worked out at 8 mg/L; in assay [2] (FQ-R, CaMHB, 24 h incubation), 8 mg/L; in assay [3] (setting [10]), 4 mg/L; in the assay with S. aureus HAV#216, cfr (cfr, CaMHB, 24 h incubation) it was 2 mg/L; in [4] (c-ermA, CaMHB, 24 h incubation), 0.5 mg/L; in [5] (setting [11]), 4 mg/L. Besides, the MIC in assay [6] (CaMHB, 24 h incubation) is 0.5 mg/L; in the assay with E. coli HAV#038, ΔTolC, 0.5 mg/L; in [7] (setting [12]), at most 0.06 mg/L; in assay [8] (setting [13]) it was 0.125 mg/L; in assay [9] (c-ermB, CaMHB, 24 h incubation) it was 0.25 mg/L; in the assay with E. coli HAV#040, LptD it was 0.5 mg/L.

Consider `CC(C)C[C@@H]1CCO[C@@H]2[C@@H](C1)CN(C)[C@@H]2C(=O)N[C@H]1C2OC(SCC/C=C\[C@H]1C)C(O)C(O)C2O` (single isomer, unassigned) [FSA1508001, formate], for which the MIC in [1] (24 h) came out at 16 mg/L; in assay [2] (24 h), 64 mg/L; in assay [3] it was 8 mg/L; with S. aureus HAV#216, cfr (24 h), 1 mg/L; in assay [4] (24 h) it was 0.5 mg/L; in assay [5] it was 2 mg/L. Also, the MIC in assay [6] (24 h) turned out to be 0.25 mg/L; with E. coli HAV#038, ΔTolC it was 0.25 mg/L; in [7], 0.25 mg/L; in assay [8], 0.125 mg/L; in [9] (24 h), 0.25 mg/L; in the assay on E. coli HAV#040, LptD, 0.25 mg/L.

Regarding `CC(C)C[C@@H]1CCO[C@@H]2[C@H](CN[C@@H]2C(=O)N[C@@H]2C/C=C\CCS[C@H]3O[C@H]2[C@H](O)[C@H](O)[C@H]3O)C1` [FSA1507013, (4S,5aS,8S,8aR)-4-isobutyl-8-(((1R,8R,9R,10R,11S,12R,Z)-10,11,12-trihydroxy-13-oxa-2-thiabicyclo[7.3.1]tridec-5-en-8-yl)carbamoyl) octahydro-2H-oxepino[2,3-c]pyrrol-7-ium formate], the MIC stood at 2 mg/L in [1] (24 h); 8 mg/L in [2] (24 h); 2 mg/L in assay [3]; 4 mg/L in assay [4] (24 h); 2 mg/L in [5]; 0.125 mg/L in the assay with E. coli HAV#038, ΔTolC. Further, the MIC in assay [7] stood at 0.125 mg/L; in assay [8], 0.125 mg/L; in assay [9] (24 h) it was 0.5 mg/L; in the assay with E. coli HAV#040, LptD, 0.5 mg/L.

In the case of `CC(C)C[C@@H]1CCO[C@@H]2[C@@H](C1)CN(C)[C@@H]2C(=O)N[C@@H]1C/C=C\CCS[C@H]2O[C@H]1[C@H](O)[C@H](O)[C@H]2O` [FSA1508003, (4S,5aS,8S,8aR)-4-isobutyl-7-methyl-8-(((1R,8R,9R,10R,11S,12R,Z)-10,11,12-trihydroxy-13-oxa-2-thiabicyclo[7.3.1]tridec-5-en-8-yl)carbamoyl) octahydro-2H-oxepino[2,3-c]pyrrol-7-ium formate], the MIC amounted to 8 mg/L in assay [1] (24 h); 16 mg/L in assay [2] (24 h); 4 mg/L in [3]; 8 mg/L in the assay on S. aureus HAV#216, cfr (24 h); 2 mg/L in assay [4] (24 h); 2 mg/L in assay [5]. Also, the MIC stood at 1 mg/L in assay [6] (24 h); 0.25 mg/L with E. coli HAV#038, ΔTolC; 0.125 mg/L in [7]; 0.125 mg/L in assay [8]; 2 mg/L in [9] (24 h); 0.25 mg/L in the assay on E. coli HAV#040, LptD.

Consider `CC(C)C[C@@H]1CCO[C@@H]2[C@H](CN[C@@H]2C(=O)N[C@@H]2C/C=C\C[C@@H](CO)S[C@H]3O[C@H]2[C@H](O)[C@H](O)[C@H]3O)C1` [FSA1606034, (4S,5aS,8S,8aR)-4-isobutyl-N-((1R,3S,8R,9R,10R,11S,12R,Z)-10,11,12-trihydroxy-3-(hydroxymethyl)-13-oxa-2-thiabicyclo[7.3.1]tridec-5-en-8-yl) octahydro-2H-oxepino[2,3-c]pyrrole-8-carboxamide hydrochloride salt], for which the MIC is 2 mg/L in the assay on E. coli ΔtolC; 64 mg/L in [3] (setting [10]); over 64 mg/L with S. aureus Clinical (cfr) (Clinical (cfr), CaMHB, 24 h incubation); over 64 mg/L in the assay on K. pneumoniae JMI-991193 (JMI-991193, CaMHB, 24 h incubation); over 64 mg/L in assay [5] (setting [11]); 64 mg/L in the assay with S. aureus MMX 3035 (MMX 3035, CaMHB, 24 h incubation). Moreover, the MIC in assay [7] (setting [12]) was 1 mg/L; in [8] (setting [13]) it was 2 mg/L; with E. coli lptD mutant, 8 mg/L; in the assay with E. faecium JMI-990536 (JMI-990536, CaMHB, 24 h incubation), over 64 mg/L; with S. pneumoniae c-ermB it was 16 mg/L.

For the molecule `CC(C)C[C@@H]1CCO[C@@H]2[C@H](CN[C@@H]2C(=O)N[C@H]2[C@H]3O[C@H](S[C@H](c4cn(-c5cccc(Cl)c5)nn4)C/C=C\[C@H]2C)[C@H](O)[C@@H](O)[C@H]3O)C1` [FSA1609015, (4S,5aS,8S,8aR)—N-((1R,3S,7R,8R,9R,10R,11S,12R,Z)-3-(1-(3-chlorophenyl)-1H-1,2,3-triazol-4-yl)-10,11,12-trihydroxy-7-methyl-13-oxa-2-thiabicyclo[7.3.1]tridec-5-en-8-yl)-4-isobutyloctahydro-2H-oxepino[2,3-c]pyrrole-8-carboxamide formate salt], the MIC with E. coli ΔtolC stood at 2 mg/L; in [3] it was 8 mg/L; with S. aureus Clinical (cfr), 2 mg/L; in the assay on K. pneumoniae JMI-991193, 32 mg/L; in assay [5], 8 mg/L; with S. aureus MMX 3035 it was 2 mg/L. Moreover, the MIC came out at 1 mg/L in assay [7]; 2 mg/L in assay [8]; 2 mg/L with E. coli lptD mutant; 0.5 mg/L in the assay on E. faecium JMI-990536; 0.25 mg/L in the assay with S. pneumoniae c-ermB.

The values above are taken from patent US20250270246A1, “LINCOSAMIDES AND USES THEREOF” (President and Fellows of Harvard College, priority 2022, published 2025).
